From patent US8153784B2, “Imaging of enzyme activity” (The General Hospital Corporation, priority 2004, dated 2012)

How the values were obtained:
[1] = target: T1, human myeloperoxidase (MPO) (Homo sapiens, UniProt P05164); conditions: in vitro settings; reference (9); cited from earlier work
T1 construct: purchased BioDesign Inc

[2] = Relaxivity of monomeric Gd complexes without enzyme; format: physicochemical; conditions: for r1p (0.47T, 40°) / r1p (1.5T, 25°): no HRP
Experimental: Stock solutions of compounds 1Gd and 2Gd were prepared by dissolving the corresponding complexes in DPBS buffer solution (pH 7.4) and were kept at −4° in the dark. Every stock solution was titrated by means of ICP-MS (Elemental Research Inc.).
(§1) Relaxation times at 0.47 T was obtained on a Bruker NMS-120 Minispec spectrometer using an inversion recovery sequence, with a TR=5T1, and 15 TI points evenly spaced up to 5T1.
(§2) Relaxation times at 1.5 T was measured on a 1.5 T GE Excite MR scanner utilizing an inversion recovery sequences with TR=2000 ms, TI=50, 75, 100, 150, 200, 250, 300, 350, 400, 500, 625, 750, 1000 ms. A fixed-size region of interest was drawn to obtain the signal intensity of the samples.
(§3) The data at 0.47 T and 1.5 T were fitted to the equation Ix=I0*(1−2e^[…]) to obtain T1, where I is the signal obtained at a certain time point TI, with I0 (total signal or magnetization) and T1 being fitted values.
(§4) The relaxivities of various polymerized products were measured using a minimum of four different gadolinium complex concentrations ranging from 2.5 mM to 0.01 mM. Horseradish peroxidase (HRP) was used in the proof-of-the-principle experiments. As used herein, the descriptors 1Gd^3+ and 2Gd^3+ refer to Gd^3+-chelated compounds 1 and 2, respectively. The synthesis of 1Gd^3+ and 2Gd^3+ are described in the Examples.

[3] = target: T2, horseradish peroxidase (HRP) (Armoracia rusticana, UniProt P00433); assay: HRP-mediated oligomerization of 1Gd^3+ and 2Gd^3+: relaxivity, MALDI-MS; format: biochemical; design: purchased Sigma; conditions: for increase in relaxivity in the presence of peroxidase: 96-well plate image, 4 units HRP, DPBS; for increase in [r1p]: 0.47T and 40° C.
T2 sequence (P00433 31-338): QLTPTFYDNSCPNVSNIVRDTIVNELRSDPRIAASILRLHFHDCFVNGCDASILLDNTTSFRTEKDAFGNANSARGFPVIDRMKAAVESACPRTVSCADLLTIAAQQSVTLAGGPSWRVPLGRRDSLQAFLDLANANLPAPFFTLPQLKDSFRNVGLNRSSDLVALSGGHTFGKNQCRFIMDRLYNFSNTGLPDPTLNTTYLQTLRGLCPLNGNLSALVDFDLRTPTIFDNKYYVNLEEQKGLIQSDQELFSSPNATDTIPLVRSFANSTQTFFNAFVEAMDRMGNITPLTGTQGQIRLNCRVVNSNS
Experimental: as §1, §2, §3
Horseradish peroxidase was purchased from Sigma as a lyophilized powder that was dissolved in PBS buffer (4 mg/mL) and its activity was measured using substantially the same the methods described by Klebanoff, S. J.; Waltersdorph, A. M.; Rosen, H. Meth Enzymol. 1984 Vol. 105, p 399-403.
Oligomerization of compounds 1Gd^3+ and 2Gd^3+ was achieved by incubating the desired solution (0.5 mL) of monomer with an excess of H2O2 3% (2 μL) and HRP (1 μg≈4 Units) for 1 hour at 40° C. Both T1 and T2 were measured at two different field strengths: 0.47T and 1.5T, this last one using a clinical magnet (1.5 T Signa, GE).
as §4

HRP = target: T3, HRP (Armoracia rusticana, UniProt P00433); assay: HRP effect over T1, well plate with different HRP amounts; format: biochemical, horseradish; conditions: for lowest enzyme activity level with detectable decrease in T1 / decrease in T1: 0.5 mM; for T1: C = 0.5 mM
T3 construct: purchased Sigma
T3 sequence (P00433 31-338): T2 sequence (P00433 31-338)
Experimental: MR imaging was performed on a 1.5 T GE Excite whole body MR scanner using a 3 inch surface coil. T1-weighted images were obtained using a spin echo sequence with TR=500 ms, TE=11 ms, NEX=4.
To estimate the detection limit of these sensor substrates, a new well plate layout containing a fixed concentration of 1Gd^3+ (0.5 mM, row b1) and 2Gd^3+ (0.5 mM, row b2) supplemented with different HRP amounts (from left to right: 4, 0.4, 0.04, 0.004 U) was imaged (FIG. 10B). The use of 4 U/mL of enzyme yielded a decrease in T1 by 50 and 25% for compounds 1Gd^3+ and 2Gd^3+, respectively. Detectable decrease could be seen at enzyme specific activity levels as low as 0.04 U/mL. In this case the decrease was measured to be 15% for compound 1Gd^3+ and 12% for compound 2Gd^3+.

human neutrophil MPO = target: T4, human neutrophil MPO (Homo sapiens, UniProt P05164); assay: MPO-mediated polymerization of DOTA(Gd) substrates: T1/T2 relaxivity change; format: biochemical; conditions: for maximum ratio of relaxivity increase between MPO-converted product and substrate: longitudinal and transverse, 1300-1400 U of enzyme activity
T4 construct: purchased BioDesign Inc
Experimental: Reactions with HRP and MPO were carried out at room temperature in the presence of 0.5-1 mM substrate dissolved in 0.5 ml PBS containing H2O2 (2 mM). Reaction was initiated by adding an aliquot containing the enzyme (either HRP or MPO) and vortexing. After at least a 30 min incubation period T1 was measured using inversion-recovery pulse sequence Bruker Minispec (Buker Analytics, North Bellirica Mass.) at 0.47 T (20 MHz). Size-exclusion HPLC of reaction products was performed on TSK G3000SWXL macroporous column (Supelco) eluted with 0.1 M triethylammonium acetate, pH 7.0 at 1 ml/min.
Standard 96-well plates were prepared and imaged on a 1.5 T whole body clinical General Electric Signa MRI scanner utilizing a standard 3 inch surface coil. Inversion recovery sequences were used to measure T1 relaxation and spin echo sequences were utilized to measure T2 relaxation. T2 weighted images were obtained with TR=5000 ms and TE=100 ms with a fast spin echo sequence. T1 weighted images were obtained with spin echo sequences with the following parameters: TR=100, 200, 350, or 500, TE=11. For the Matrigel™ experiments, a relatively T2 weighted image was obtained at TR=300 ms and TE=200 ms. Single-exponential models were used to obtain T1 and T2. The relaxivities were computed by normalizing relaxation rates to the concentration of gadolinium in each sample, obtained by inductive coupled plasma (ICP) analysis performed by Galbraith Laboratories.
To determine the effect of myeloperoxidase on the substrates, we performed T1 and T2 relaxivity measurements in aqueous solutions, with and without MPO and hydrogen peroxide, at 0.47 T and 1.5 T (the results are summarized in FIGS. 3A and 3B for tyramide-DOTA(Gd) and FIGS. 4A and 4B for 5-HT-DOTA(Gd)). For reference, the two substrates were also reacted with HRP (solid symbols in FIGS. 3A and 3B and FIGS. 4A and 4B).

T4 sequence (P05164 279-745 limits assumed): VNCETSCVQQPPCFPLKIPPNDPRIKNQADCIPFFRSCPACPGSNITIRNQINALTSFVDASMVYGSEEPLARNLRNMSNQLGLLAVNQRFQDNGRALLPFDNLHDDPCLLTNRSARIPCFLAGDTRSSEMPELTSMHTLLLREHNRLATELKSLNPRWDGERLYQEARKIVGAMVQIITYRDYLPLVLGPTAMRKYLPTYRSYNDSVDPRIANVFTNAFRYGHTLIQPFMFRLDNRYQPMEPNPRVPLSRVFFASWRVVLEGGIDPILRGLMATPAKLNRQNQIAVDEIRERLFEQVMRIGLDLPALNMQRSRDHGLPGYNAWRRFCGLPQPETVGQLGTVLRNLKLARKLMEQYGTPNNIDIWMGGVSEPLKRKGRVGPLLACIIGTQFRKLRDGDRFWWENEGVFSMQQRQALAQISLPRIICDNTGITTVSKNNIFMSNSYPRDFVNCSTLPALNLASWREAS
T4 sequence (P05164 165-273 limits assumed): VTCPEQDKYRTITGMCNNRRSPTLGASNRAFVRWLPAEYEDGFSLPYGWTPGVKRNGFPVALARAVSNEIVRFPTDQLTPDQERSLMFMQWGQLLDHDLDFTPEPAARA
T1 sequence (P05164 279-745 limits assumed): as the sequence (P05164 279-745 limits assumed) above
T1 sequence (P05164 165-273 limits assumed): as the sequence (P05164 165-273 limits assumed) above

| SMILES | time of MPO activation and oligomerization to reach 90% completion [1] | r1p (0.47T, 40°) ([2]; H2O pH = 4.8) | r1p (0.47T, 40°) ([2]; PBS pH = 7.4) | r1p (1.5T, 25°) ([2]; PBS pH = 7.4) | increase in relaxivity in the presence of peroxidase [3] | increase in [r1p] ([3]; HRP) | lowest enzyme activity level with detectable decrease in T1 (HRP) | decrease in T1 (HRP; 0.04 U/mL of enzyme) | decrease in T1 (HRP; 4 U/mL of enzyme) | T1 (HRP; HRP 0 U) | T1 (HRP; HRP 4 10-1 U) | T1 (HRP; HRP 4 10-2 U) | T1 (HRP; HRP 4 10-3 U) | T1 (HRP; HRP 4 U) | other results |
| --- | --- | --- | --- | --- | --- | --- | --- | --- | --- | --- | --- | --- | --- | --- | --- |
| O=C([O-])CN(CCN(CC(=O)[O-])CC(=O)NCCc1c[nH]c2ccc(O)cc12)CCN(CC(=O)[O-])CC(=O)NCCc1c[nH]c2ccc(O)cc12.[Gd+3] [2Gd^3+] | about 15 minutes | 4.5 mM⁻¹ s⁻¹ | ~4.3 mM⁻¹ s⁻¹ | 5.1 mM⁻¹ s⁻¹ | 30% | 2.4 fold | 0.04 U/mL | 12% | 25% | 339 ms | 278 ms | 303 ms | 331 ms | 271 ms | r1 ([2]; well plate at 1.5T, pH 7.2, no enzyme (row 1)): 4.7 mM⁻¹ s⁻¹; increase in relaxivity ([3]; HRP, 1.5T, 25°, concentrations below 0.5 mM used for fitting): 1.4 fold; minimum increase in relaxivity ([3]; HRP, 1.5T, 25°, predicted from the obtained data): ≥ 30%; minimum relaxivity increase ([3]; pH=7.4 (PBS buffer), 0.47T, 'in an embodiment', enzyme not stated): ≥ 40% |
| CC(C(=O)NCC(=O)NCCc1c[nH]c2ccc(O)cc12)N1CCN(CC(=O)[O-])CCN(CC(=O)[O-])CCN(CC(=O)[O-])CC1.[Gd+3] (stereo not drawn) [5-HT-DOTA(Gd), Glycylmethyl DOTA(Gd) 5-Hydroxytryptamide] | about 15 minutes | – | – | – | – | – | – | – | – | – | – | – | – | – | maximum ratio of relaxivity increase between MPO-converted product and substrate (human neutrophil MPO; 0.47 T): 1.9-2 times; maximum ratio of relaxivity increase between MPO-converted product and substrate (human neutrophil MPO; 1.5 T): 1.6-1.7 times; T1 shortening relative to that by HRP (human neutrophil MPO; 10 μL of MPO (1.6 mg/ml) vs 1 μL HRP (4 mg/ml)): 100%; T1 shortening relative to HRP-mediated T1 shortening (human neutrophil MPO; 250-650 U MPO): Approximately 70%; relaxivity shortening found in the relaxation experiments (human neutrophil MPO; 1300-2000 U): ~70%; increase in relaxivity of polymer product (human neutrophil MPO; equivalent amount of MPO, clinical imaging strength): 1.7 times |
| O=C([O-])CN(CCN(CC(=O)[O-])CC(=O)NCCc1ccc(O)cc1)CCN(CC(=O)[O-])CC(=O)NCCc1ccc(O)cc1.[Gd+3] [1Gd^3+] | – | 4.6 mM⁻¹ s⁻¹ | ~4.3 mM⁻¹ s⁻¹ | 5.3 mM⁻¹ s⁻¹ | 70% | 3.7 fold | 0.04 U/mL | 15% | 50% | 316 ms | 229 ms | 274 ms | 321 ms | 211 ms | increase in relaxivity ([3]; HRP, 1.5T clinical MRI unit at 25°): 1.7 fold |
